Results taken from BindingDB's records for doi:10.1016/s0960-894x(00)00282-1 (Novartis Horsham Research Centre, 2000).

Experiment: Compound was evaluated for its inhibitory activity against Serine protease chymotrypsin

Row | SMILES | Ki
1 | CC1CNc2c(cccc2S(=O)(=O)N[C@@H](Cc2nc3ccccc3s2)C(=O)N2CCC(CCO)CC2)C1 (stereo partly drawn) [3-Methyl-1,2,3,4-tetrahydro-quinoline-8-sulfonic acid {(S)-1-benzothiazol-2-ylmethyl-2-[4-(2-hydroxy-ethyl)-piperidin-1-yl]-2-oxo-ethyl}-amide] | 7.55 µM
2 | CCC1CCN(C(=O)C(Cc2nc3ccccc3s2)NS(=O)(=O)c2cccc3c2NCC(C)(C)C3)CC1 (configuration not stated) [MD805 Analogue] | 4.91 µM
